The structures appear in SMILES notation. Converted amounts (≈) assume the structure as drawn. Where only a bound is given, the exact number is not on record here.

Here are results for 17 compounds from patent publication US20080280879A1, “SUBSTITUTED HETEROCYCLIC DERIVATIVES AND THEIR PHARMACEUTICAL USE AND COMPOSITIONS” (priority 2007, published 2008).

What all share (type): cell-based, Staphylococcus aureus
One assay concerns Staph aureus 1095 MRSA. Nature of the assay: MIC, microtiter broth dilution (CLSI M7-A7), Assay 1, Table 12 column A, no serum. To be noted: Staphylococcus aureus, MRSA, Assay 1, no serum. The protocol: (§1) The assays described herein include a panel of bacterial isolates of Staphylococcus aureus. Assay 1 comprises the strains noted in Columns A through E, and Assay 2 comprises the strains noted in Columns F through H. The assays are performed in microtiter trays according to Methods for Dilution Antimicrobial Susceptibility Tests for Bacteria that Grow Aerobically; Approved Standard-7th edition (M7-A7) and interpreted according to the Performance Standards for Antimicrobial Susceptibility Testing; 16th Informational Supplement (M100-S16) published by Clinical Laboratory Standards Institute (CLSI). The antibacterial activity is presented in the form of a minimum inhibitory concentration (MIC) value in μg/ml format. The MIC value represents the lowest concentration of drug measured which prevented macroscopically visible growth under the conditions and specific doses tested. The compounds were initially dissolved in DMSO as 30 mM stocks and diluted accordingly to adjust to a concentration of 10 mg/ml or the compounds were dissolved in DMSO at a concentration of 10 mg/ml. For assessment of activity in the presence of human serum, S. aureus 1146 and S. aureus 1031 were inoculated into Mueller-Hinton Broth with 50% pooled inactivated human serum. In some cases, compounds were tested more than once in a particular assay. Where noted, the MIC value shown in Table 12 represents the geometric mean of the data from multiple runs.
(§2) It should be understood that the data in columns A-H represents MIC data in μg/ml and the notation “<=” means ‘less than or equal to’.

In another assay the test system is Staph aureus 2812. Nature of the assay: MIC, microtiter broth dilution (CLSI M7-A7), Assay 1, Table 12 column E, no serum. The settings on record: Staphylococcus aureus, 2812, Staph aureus 2812, Assay 1, no serum. How it is done: as §1, §2
Assay [1] concerns Staph aureus 1146. In words: MIC, microtiter broth dilution (CLSI M7-A7), Assay 1, Table 12 column B, no serum. The settings on record: Staphylococcus aureus, 1146, Staph aureus 1146, Assay 1, no serum. The protocol: as §1, §2
Assay [2] concerns Staph aureus 1146. Nature of the assay: MIC in Mueller-Hinton Broth with 50% pooled inactivated human serum, Assay 1, Table 12. The settings on record: Staphylococcus aureus, 1146, Staph aureus 1146, Assay 1, 50% human serum; read-out: MIC, column C. How it is done: as §1, §2
For another assay, the system named is Staph aureus 2811. In words: MIC, microtiter broth dilution (CLSI M7-A7), Assay 1, Table 12 column D, no serum. The settings on record: Staphylococcus aureus, 2811, Staph aureus 2811, Assay 1, no serum. How it is done: as §1, §2

Regarding `COc1ccc2nccc(C(O)CC[C@@H]3CCN(C4CC(c5ccc(O)cc5)C4)C[C@@H]3C(=O)O)c2c1` (stereo partly drawn) [Example 31, (3R,4R)-4-[3-hydroxy-3-(6-methoxyquinolin-4-yl)propyl]-1-[3-(4-hydroxyphenyl)cyclobutyl] piperidine-3-carboxylic acid], the MIC against Staph aureus 1095 MRSA was 16 µg/mL (≈ 32.6 µM); in the assay with Staph aureus 2812, 32 µg/mL (≈ 65.2 µM); with Staph aureus 1146 [1], 32 µg/mL (≈ 65.2 µM); in the assay with Staph aureus 1146 [2] it was more than 64 µg/mL; in the assay with Staph aureus 2811, 32 µg/mL (≈ 65.2 µM).

Take `COc1ccc2nccc(C(O)CC[C@@H]3CCN(C4CC(c5ccc(OC)c(OC)c5)C4)C[C@@H]3C(=O)O)c2c1` (stereo partly drawn) [Example 32, (3R,4R)-1-[3-(3,4-dimethoxyphenyl)cyclobutyl]-4-[3-hydroxy-3-(6-methoxyquinolin-4-yl)propyl] piperidine-3-carboxylic acid]: the MIC was 64 µg/mL (≈ 120 µM) against Staph aureus 1095 MRSA; 64 µg/mL (≈ 120 µM) in the assay with Staph aureus 2812; more than 64 µg/mL against Staph aureus 1146 [1]; more than 64 µg/mL with Staph aureus 1146 [2]; 64 µg/mL (≈ 120 µM) against Staph aureus 2811.

For `COc1ccc2nccc(C(O)CC[C@@H]3CCN(C4CC(c5ccc(O)c(OC)c5)C4)C[C@@H]3C(=O)O)c2c1` (stereo partly drawn) [Example 33, (3R,4R)-1-[3-(4-hydroxy-3-methoxyphenyl)cyclobutyl]-4-[3-hydroxy-3-(6-methoxyquinolin-4-yl)propyl]piperidine-3-carboxylic acid], the minimal inhibitory concentration (MIC) against Staph aureus 1095 MRSA, in the assay on Staph aureus 2812, against Staph aureus 1146 [1], with Staph aureus 1146 [2] and against Staph aureus 2811 was more than 64 µg/mL in each case.

As to `COc1ccc2nccc(C(O)CC[C@@H]3CCN(C4CC(c5ccccc5C)C4)C[C@@H]3C(=O)O)c2c1` (stereo partly drawn) [Example 34, (3R,4R)-4-[3-hydroxy-3-(6-methoxyquinolin-4-yl)propyl]-1-[3-(2-methylphenyl)cyclobutyl] piperidine-3-carboxylic acid], the MIC was 1 µg/mL (≈ 2.05 µM) against Staph aureus 1095 MRSA; 0.5 µg/mL (≈ 1.02 µM) in the assay on Staph aureus 2812; 1 µg/mL (≈ 2.05 µM) in the assay with Staph aureus 1146 [1]; 16 µg/mL (≈ 32.7 µM) in the assay with Staph aureus 1146 [2]; 0.5 µg/mL (≈ 1.02 µM) with Staph aureus 2811.

Consider `COc1ccc2nccc(C(O)CC[C@@H]3CCN(C4CC(c5c(C)cccc5C)C4)C[C@@H]3C(=O)O)c2c1` (stereo partly drawn) [Example 35, (3R,4R)-1-[3-(2,6-dimethylphenyl)cyclobutyl]-4-[3-hydroxy-3-(6-methoxyquinolin-4-yl)propyl] piperidine-3-carboxylic acid], for which the MIC turned out to be 4 µg/mL (≈ 7.96 µM) against Staph aureus 1095 MRSA; 1 µg/mL (≈ 1.99 µM) against Staph aureus 2812; 1 µg/mL (≈ 1.99 µM) against Staph aureus 1146 [1]; 64 µg/mL (≈ 127 µM) in the assay with Staph aureus 1146 [2]; 1 µg/mL (≈ 1.99 µM) against Staph aureus 2811.

As for `COc1ccc2nccc(C(O)CC[C@@H]3CCN(C4CC(c5cccc(F)c5F)C4)C[C@@H]3C(=O)O)c2c1` (stereo partly drawn) [Example 36, (3R,4R)-1-[3-(2,3-difluorophenyl)cyclobutyl]-4-[3-hydroxy-3-(6-methoxyquinolin-4-yl)propyl] piperidine-3-carboxylic acid], the MIC in the assay with Staph aureus 1095 MRSA is 0.125 µg/mL (≈ 0.245 µM); against Staph aureus 2812, not above 0.0625 µg/mL; in the assay on Staph aureus 1146 [1] it was not above 0.0625 µg/mL; in the assay with Staph aureus 1146 [2], 2 µg/mL (≈ 3.92 µM); with Staph aureus 2811, not above 0.0625 µg/mL.

Turning to `COc1ccc2nccc([C@@H](O)CC[C@@H]3CCN(C4CC(c5ccc(F)cc5F)C4)C[C@@H]3C(=O)O)c2c1` (stereo partly drawn) [Example 37, (3R,4R)-1-[3-(2,4-difluorophenyl)cyclobutyl]-4-[(3S)-3-hydroxy-3-(6-methoxyquinolin-4-yl)propyl] piperidine-3-carboxylic acid], the MIC with Staph aureus 1095 MRSA is 0.25 µg/mL (≈ 0.49 µM); against Staph aureus 2812, 0.25 µg/mL (≈ 0.49 µM); against Staph aureus 1146 [1] it was not above 0.0625 µg/mL; in the assay on Staph aureus 1146 [2], 1 µg/mL (≈ 1.96 µM); against Staph aureus 2811, not above 0.0625 µg/mL.

As to `COc1ccc2nccc(C(O)CC[C@@H]3CCN(C4CC(c5cc(F)ccc5F)C4)C[C@@H]3C(=O)O)c2c1` (stereo partly drawn) [Example 38, (3R,4R)-1-[3-(2,5-difluorophenyl)cyclobutyl]-4-[3-hydroxy-3-(6-methoxyquinolin-4-yl)propyl] piperidine-3-carboxylic acid], the MIC in the assay on Staph aureus 1095 MRSA stood at 0.25 µg/mL (≈ 0.49 µM); in the assay with Staph aureus 2812, 0.125 µg/mL (≈ 0.245 µM); in the assay with Staph aureus 1146 [1] it was 0.125 µg/mL (≈ 0.245 µM); with Staph aureus 1146 [2], 4 µg/mL (≈ 7.83 µM); in the assay on Staph aureus 2811, 0.125 µg/mL (≈ 0.245 µM).

Regarding `COc1ccc2ncc(F)c(C(O)CC[C@@H]3CCN(C4CC(c5cc(F)ccc5F)C4)C[C@@H]3C(=O)O)c2c1` (stereo partly drawn) [Example 39, (3R,4R)-1-[3-(2,5-difluorophenyl)cyclobutyl]-4-[3-(3-fluoro-6-methoxyquinolin-4-yl)-3-hydroxypropyl]piperidine-3-carboxylic acid], the MIC in the assay on Staph aureus 1095 MRSA is not above 0.125 µg/mL; against Staph aureus 2812, not above 0.0625 µg/mL; in the assay on Staph aureus 1146 [1] it was not above 0.0625 µg/mL; with Staph aureus 1146 [2], 1 µg/mL (≈ 1.89 µM); with Staph aureus 2811, 0.25 µg/mL (≈ 0.473 µM).

Turning to `COc1ccc2nccc([C@@H](O)CC[C@@H]3CCN(C4CC(c5cc(F)ccc5F)C4)C[C@@H]3C(=O)O)c2c1` (stereo partly drawn) [Example 40, (3R,4R)-1-[3-(2,5-difluorophenyl)cyclobutyl]-4-[(3S)-3-hydroxy-3-(6-methoxyquinolin-4-yl)propyl] piperidine-3-carboxylic acid], the MIC was 0.125 µg/mL (≈ 0.245 µM) in the assay on Staph aureus 1095 MRSA; not above 0.0625 µg/mL with Staph aureus 2812; not above 0.0625 µg/mL with Staph aureus 1146 [1]; 1.26 µg/mL (≈ 2.47 µM) in the assay with Staph aureus 1146 [2]; not above 0.0625 µg/mL against Staph aureus 2811.

Turning to `COc1ccc2nccc([C@@H](O)CC[C@@H]3CCN(C4CC(c5ccc(-c6ccccc6)cc5)C4)C[C@@H]3C(=O)O)c2c1` (stereo partly drawn) [Example 41, (3R,4R)-1-(3-biphenyl-4-ylcyclobutyl)-4-[(3S)-3-hydroxy-3-(6-methoxyquinolin-4-yl)propyl] piperidine-3-carboxylic acid], the MIC against Staph aureus 1095 MRSA, with Staph aureus 2812, in the assay on Staph aureus 1146 [1], with Staph aureus 1146 [2] and with Staph aureus 2811 was more than 64 µg/mL in each case.

Take `COc1ccc2nccc(C(O)CC[C@@H]3CCN(C4CC(C)(c5ccccc5)C4)C[C@@H]3C(=O)O)c2c1` (stereo partly drawn) [Example 42, (3R,4R)-4-[3-hydroxy-3-(6-methoxyquinolin-4-yl)propyl]-1-(3-methyl-3-phenylcyclobutyl)piperidine-3-carboxylic acid]: the minimum inhibitory concentration (MIC) against Staph aureus 1095 MRSA was more than 64 µg/mL; against Staph aureus 2812 it was 32 µg/mL (≈ 65.5 µM); against Staph aureus 1146 [1], more than 64 µg/mL; in the assay on Staph aureus 1146 [2], 32 µg/mL (≈ 65.5 µM); in the assay with Staph aureus 2811, more than 64 µg/mL.

Take `COc1ccc2nccc(C(O)CC[C@@H]3CCN(C4CC(c5ccccc5)C4C)C[C@@H]3C(=O)O)c2c1` (stereo partly drawn) [Example 43, (3R,4R)-4-[3-hydroxy-3-(6-methoxyquinolin-4-yl)propyl]-1-(2-methyl-3-phenylcyclobutyl)piperidine-3-carboxylic acid]: the MIC in the assay on Staph aureus 1095 MRSA was 0.25 µg/mL (≈ 0.512 µM); in the assay with Staph aureus 2812 it was not above 0.0625 µg/mL; in the assay with Staph aureus 1146 [1], not above 0.0625 µg/mL; with Staph aureus 1146 [2], 0.5 µg/mL (≈ 1.02 µM); with Staph aureus 2811, not above 0.0625 µg/mL.

With `COc1ccc2nccc(C(O)CC[C@@H]3CCN(C4CC(C5CCCCC5)C4)C[C@@H]3C(=O)O)c2c1` (stereo partly drawn) [Example 44, (3R,4R)-1-(3-cyclohexylcyclobutyl)-4-[3-hydroxy-3-(6-methoxyquinolin-4-yl)propyl]piperidine-3-carboxylic acid], the MIC was determined as 0.5 µg/mL (≈ 1.04 µM) against Staph aureus 1095 MRSA; 0.125 µg/mL (≈ 0.26 µM) in the assay with Staph aureus 2812; 0.25 µg/mL (≈ 0.52 µM) against Staph aureus 1146 [1]; 2 µg/mL (≈ 4.16 µM) in the assay with Staph aureus 1146 [2]; 0.125 µg/mL (≈ 0.26 µM) in the assay on Staph aureus 2811.

In the case of `COc1ccc2nccc(C(O)CC[C@@H]3CCN(C4CC(C5CCCC5)C4)C[C@@H]3C(=O)O)c2c1` (stereo partly drawn) [Example 45, (3R,4R)-1-(3-cyclopentylcyclobutyl)-4-[3-hydroxy-3-(6-methoxyquinolin-4-yl)propyl]piperidine-3-carboxylic acid], the minimum inhibitory concentration (MIC) in the assay on Staph aureus 1095 MRSA was not above 0.125 µg/mL; with Staph aureus 2812 it was not above 0.0884 µg/mL; against Staph aureus 1146 [1] it was not above 0.0884 µg/mL; in the assay on Staph aureus 1146 [2] it was 0.353 µg/mL (≈ 0.758 µM); with Staph aureus 2811, not above 0.0884 µg/mL.

For the compound `COc1ccc2nccc([C@H](O)CC[C@@H]3CCN(C4CC(C5CCCC5)C4)C[C@@H]3C(=O)O)c2c1` (stereo partly drawn) [Example 46, (3R,4R)-1-(3-cyclopentylcyclobutyl)-4-[(3R)-3-hydroxy-3-(6-methoxyquinolin-4-yl)propyl]piperidine-3-carboxylic acid], the MIC against Staph aureus 1095 MRSA was found to be 1 µg/mL (≈ 2.14 µM); against Staph aureus 2812, 2 µg/mL (≈ 4.29 µM); in the assay on Staph aureus 1146 [1], 1 µg/mL (≈ 2.14 µM); in the assay with Staph aureus 1146 [2], 8 µg/mL (≈ 17.1 µM); against Staph aureus 2811, 1 µg/mL (≈ 2.14 µM).

`COc1ccc2nccc([C@@H](O)CC[C@@H]3CCN(C4CC(C5CCCC5)C4)C[C@@H]3C(=O)O)c2c1` (stereo partly drawn) [Example 47, (3R,4R)-1-(3-cyclopentylcyclobutyl)-4-[(3S)-3-hydroxy-3-(6-methoxyquinolin-4-yl)propyl]piperidine-3-carboxylic acid]: the MIC against Staph aureus 1095 MRSA was 0.125 µg/mL (≈ 0.268 µM); in the assay with Staph aureus 2812, 0.125 µg/mL (≈ 0.268 µM); with Staph aureus 1146 [1] it was not above 0.0625 µg/mL; in the assay with Staph aureus 1146 [2], 0.5 µg/mL (≈ 1.07 µM); in the assay with Staph aureus 2811, not above 0.0625 µg/mL.
